According to PubChem BioAssay AID743283 (The Scripps Research Institute Molecular Screening Center, 2014):
Active and inactive are the calls of the source.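 Rule for the calls: active = IC50 at or below 10 µM; inactive = IC50 above 10 µM.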

What follows are compounds tested on HEK293 Gal4-VP16 luciferase reporter counterscreen (assay: Gal4-VP16 luciferase reporter inhibitors, late-stage follow-up, counter-screen for COUP-TFII inhibitor project, cell-based, luminescence, HEK293, powder samples, round 000 (AID 743283)).
O=C(Nc1ccncc1)c1ccc(Cl)c(S(=O)(=O)N2CCc3ccccc32)c1 was tested, and the IC50 was 37 µM (inactive).
Cc1oc(-c2ccc(Cl)cc2)nc1CS(=O)CC(=O)NCCCN1CCN(Cc2ccccc2)CC1 (centres undefined) was tested, and the IC50 was > 28.5 µM (inactive).
With Clc1ccc(OCCN2CCN(c3ncnc4sccc34)CC2)cc1 the IC50 was > 85.4 µM (inactive).
COc1ccc(C2=Nn3c([n+](C)c4ccccc43)SC2)cc1 was tested, and the IC50 was > 85.4 µM (inactive).
COc1ccc(NS(=O)(=O)c2ccc(-c3coc(C)n3)cc2)cc1OC was tested, and the IC50 was > 85.4 µM (inactive).
Work on CC(=O)Nc1ccccc1OCC(=O)c1cc(C)n(Cc2cccs2)c1C yielded an IC50 of 8.67 µM.
In the case of CCOC(=O)N1CCN(C(=O)CSCC(=O)Nc2nc(-c3ccc(-c4ccccc4)cc3)cs2)CC1, the IC50 is reported as 33.9 µM (inactive).
COc1ccc(CN(C)c2ccc(S(=O)(=O)N3CCN(C)CC3)cc2[N+](=O)[O-])cc1OC was tested, and the IC50 was > 85.4 µM (inactive).
With Cc1cc(-n2c(C)cc(C(=O)CSc3ncnc4ccccc34)c2C)no1 the IC50 was > 85.4 µM (inactive).
For CC1Cc2cc(-c3csc(NC(=O)Cc4cccs4)n3)ccc2N1S(C)(=O)=O (centres undefined), the IC50 was 11.5 µM (inactive).
For COc1ccc(CCNc2ncnc3sccc23)cc1OC, the IC50 was > 85.4 µM (inactive).
In the case of Cc1ccc(S(=O)(=O)CC2CSc3nc4ccccc4n32)cc1 (centres undefined), the IC50 is reported as > 85.4 µM (inactive).
In the case of O=S(=O)(NCC1CCCO1)c1ccc(-c2ccc(S(=O)(=O)NCC3CCCO3)cc2)cc1 (centres undefined), the IC50 is reported as > 85.4 µM (inactive).
In the case of Cc1sc2ncnc(NCCc3ccc(S(N)(=O)=O)cc3)c2c1C, the IC50 is reported as > 85.4 µM (inactive).
In the case of Cc1cc(C)c(S(=O)(=O)NCc2ccncc2)c(C)c1, the IC50 is reported as > 85.4 µM (inactive).
COc1ccc(NS(=O)(=O)c2cccc(NC(=O)c3ccc(Cl)nc3)c2)cc1 was tested, and the IC50 was > 28.5 µM (inactive).
With Cc1sc2ncnc(NCC3COc4ccccc4O3)c2c1C (centres undefined) the IC50 was > 85.4 µM (inactive).
With CCN(CC)S(=O)(=O)c1cccc(NC(=O)CNc2cccc(S(=O)(=O)N3CCCC3)c2)c1 the IC50 was > 85.4 µM (inactive).
With Cc1nn(C)c(C)c1CN(C)S(=O)(=O)c1ccc2ccccc2c1 the IC50 was > 85.4 µM (inactive).
In the case of COc1ccc(OC)c(CCNC(=O)Cn2nc(C)c3c(C)n(-c4ccc(C)cc4)nc3c2=O)c1, the IC50 is reported as > 28.5 µM (inactive).
Cn1nccc1C(=O)NC1CCCc2c1cnn2-c1ccc(C(C)(C)C)cc1 (centres undefined) was tested, and the IC50 was > 85.4 µM (inactive).
CCOC(=O)C1CCCN(S(=O)(=O)c2ccc(S(=O)(=O)N(CC)CC)cc2)C1 (centres undefined) was tested, and the IC50 was > 85.4 µM (inactive).
For CN(CC1CCCO1)S(=O)(=O)c1ccc(C(=O)Nc2nc3cc4c(cc3s2)OCO4)cc1 (centres undefined), the IC50 was > 42.7 µM (inactive).
CCOc1cc(S(=O)(=O)NCc2ccncc2)ccc1Cl was tested, and the IC50 was > 85.4 µM (inactive).
With Cc1cc(-n2nc3ccccc3n2)c2oc(SCC(=O)NC(C)(C)C)nc2c1 the IC50 was 79.3 µM (inactive).
In the case of COc1ccc(CCNc2ncnc3sc(C)cc23)cc1OC, the IC50 is reported as 30.2 µM (inactive).
In the case of CCC1CCCCN1C(=O)c1cc(COc2ccc3ncccc3c2)on1 (centres undefined), the IC50 is reported as > 85.4 µM (inactive).
With Cc1ccc(OCCN2CCN(c3ncnc4sc(C)c(C)c34)CC2)cc1 the IC50 was > 85.4 µM (inactive).
CC(Nc1ncnc2ccccc12)c1ccccc1 (centres undefined) was tested, and the IC50 was > 85.4 µM (inactive).
